According to patent US6902724B1, “Enhanced efficacy basic aluminum halides, antiperspirant active compositions and methods for making” (Reheis, Inc., priority 2004, dated 2005):

Assays:
[1] = In vitro model: pore blocking of Millipore filter (IVMI); conditions: 0.185 molar aluminum solution; pH 10 buffer; 0.25% NaCl; 100 mm H2O; inverse relation to % sweat reduction
Excerpt: The apparatus and test protocol are based on method described by Reller and Leudders (Reller, H. H. and Leudders, W. L., Advances in Modern Toxicology, 4: 1-59 (1977)) and EP 0586235 B1 disclosures of which are incorporated herein by reference. Reller and Leudders described a millipore system which they used to measure the obstruction caused by the neutralization of various metal salts. They then compared their in vitro findings with those obtained for antiperspirant efficacy of the salts which had been tested in humans and found a reasonable correlation. A modified version of the apparatus and protocol described in […] were developed and used to determine the relative in vitro efficacy of antiperspirant actives. The system is shown schematically in FIG. 2 of the accompanying drawings. The system consists of four major components, namely the pressure control unit 1, the sweat reservoir II, the cell III and the measuring system IV.
The pressure control unit I consisted of a standard nitrogen gas cylinder 1 equipped with a pressure regulator 2 and connected to an on/off isolation valve 3 and pressure relief safety valve 4. The on/off valve 3 isolates the nitrogen cylinder 1 from the rest of the system. The majority of connections were made using ¼″ stainless steel tubing and swage lock fittings. […]

[2] = in vivo; cited from earlier work

For `[Cl][Al]([Cl])[Cl]` [aluminum chloride solution, aluminum chloride], the “IVMI (In Vitro Model Index)” value [1] is given as “lowest” and the “antiperspirancy among the various aluminum salts” value [2] is given as “highest antiperspirancy”.
